Assay [1] concerns the target T1, USP2^CD (purified catalytic domain of USP2) (Homo sapiens, UniProt O75604).
T1 construct: The purified catalytic domain of USP2 (USP2^CD, in-house purified); His; made in house; host or cells: E. coli BL21 Gold
T1 sequence (O75604 267-599 limits assumed): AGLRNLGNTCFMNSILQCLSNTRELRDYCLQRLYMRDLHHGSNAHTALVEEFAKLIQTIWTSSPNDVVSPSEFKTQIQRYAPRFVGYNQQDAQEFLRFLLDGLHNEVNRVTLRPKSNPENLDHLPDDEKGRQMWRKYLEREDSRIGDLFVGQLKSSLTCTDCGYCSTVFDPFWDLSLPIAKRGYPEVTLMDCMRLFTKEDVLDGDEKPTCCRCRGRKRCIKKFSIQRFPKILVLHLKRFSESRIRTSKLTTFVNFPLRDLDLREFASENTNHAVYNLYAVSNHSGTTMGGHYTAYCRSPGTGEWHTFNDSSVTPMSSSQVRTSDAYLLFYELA
In words: Inhibition of purified USP2^CD enzymatic activity (Ub-AMC or Ub-Rho substrate). In kind it is biochemical. Conditions: for inhibition at 0.01 µM: 0.01 μM compound; for inhibition at 0.05 µM: 0.05 μM compound; for inhibition at 0.1 µM: 0.1 μM compound; for inhibition at 0.5 µM: 0.5 μM compound; for inhibition at 1 µM: 1 μM compound; for inhibition at 5 µM: 5 μM compound; for inhibition at 10 µM: 10 μM compound; for inhibition at 25 µM: 25 μM compound; for inhibition at 50 µM: 50 μM compound; for inhibition of USP2^CD activity (IC50 range, FIG. 1): Ub-Rho substrate (0.1 μM). In short, it runs like this: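 His-tagged catalytic domain expressed in E. coli and Ni/gel-filtration purified; assayed in 50 mM HEPES pH 7.6 or 40 mM Tris pH 7.4 with 1 mM DTT. Compound added just before Ub-AMC or Ub-Rho substrate; fluorescence from hydrolysis followed over 20 or 30 min, median of duplicates.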

Another assay deals with LNCaP cells spheroids. In words: Cell death in 3D spheroids (PI/Hoechst, high content analysis). The class given is cell-based, human. Conditions: 1 to 3 days, increasing concentration, FIG. 2C. The protocol:
Spheroids were then stained with Hoechst and Propidium Iodure (PI). The area of each staining was calculated via automated imaging. Histograms represent the medium value of the PI/Hoechst areas ratio calculated on 3 to 6 independent spheroids. Error bars indicate the standard deviation between technical replicates. One out of three experiments is presented.
For 3D cell culture (spheroids), the LNCaP-FGC (fast growing colony) cell line (ATCC #CRL1740) was used. This cell line derives from the LNCaP cell line (Human Prostatic Carcinoma) which shares all the main characteristics, including its androgen sensitivity, described for the parental line and HCT116 (ATCC #CCL 247) (Human Colorectal Carcinoma) cell lines. […]
An automated imaging protocol was designed to monitor the induction of cell death in the spheroids by high content analysis methods (HCA). 3 hours before reading, cells were labeled with vital Hoechst (400 ng/ml) (Thermo Fischer Scientific #33342) and Propidium Iodide (PI) at 1 μg/ml (Sigma Aldrich #P4864) as markers of cell nuclei and cell death respectively. Images of PI and Hoechst fluorescence were acquired using the automated microscope ArrayScan^VTI (ThermoScientific) and 5 times magnification. […]

In assay [2] the test system is CyclinD1, FAS, p53, PARP, cMyc in LNCaP cells. In words: Protein expression by immunoblot, LNCaP. The class given is cell-based, human. The following applies: for Myc expression level, LNCaP / PARP cleavage, LNCaP: 24 h; for Myc expression level, LNCaP / PARP cleavage, LNCaP / phosphorylated p53 (P-Ser392, P-Ser15), LNCaP: FIG. 8; for PARP cleavage, LNCaP: concentration dependent; for phosphorylated p53 (P-Ser392, P-Ser15), LNCaP: FIG. 7C. On the procedure:
In FIG. 6B and FIG. 6D, LNCaP cells were treated with dihydrotestosterone (DHT) to induce hormonal dependent FAS expression. Actin or Tubulin (Tub) serve as loading controls. One representative experiment out of three is presented.
Actin or Tubulin (Tub) serve as loading controls. One representative experiment out of three is presented.
Tubulin (Tub) serves as loading controls. One representative experiment out of three is presented.
Cells were treated by either DMSO (0.5%) or increasing doses of the selected molecules from 1 μM to 10 μM over 6 to 24 hours as indicated. Cell lysates were analyzed by immunoblotting following standard procedure using primary antibodies from Cell Signaling: anti-total P53 (#9282), anti-phosphoP53 Kit (#9919), anti-cyclinD1 (#2926), anti-FAS (#3189), anti EGFR (#4267), anti-Phospho (tyr1068) EGFR (#2234), anti Met (#4560), anti-Akt (#9272), anti Phospho(Ser473)-Akt (#9271) or anti-Myc (Santa Cruz Technology #Sc-40). Tubulin was detected using anti α-tubulin primary antibody (in-house: the polyclonal Glu-tubulin antibody (L4) is available commercially from Abcys (Paris, France)). HRP-coupled anti-rabbit (#A6154) and anti-mouse (#A4416) secondary antibodies were purchased from Sigma. HRP activity was detected through HRP chemoluminescence detection reagent (Millipore, #WBLUF0100). Apoptotic cell death induction was observed through the observation of PARP cleavage using anti-PARP primary antibodies anti-PARP (46D11) (#9532). Positive control was Epotoside at 50 μM or 100 μM, a known drug inducing cancerous cell death by apoptosis.

Setting [3] is: Ub-AMC substrate at 1 μM, Table 2b, read-out: IC50 USP2 CD.
Setting [4] is: dose and time dependent, 6 h or 24 h, FIG. 6.

The results in this text go back to patent US11306063B2, “Heterocyclic naphthoquinones derivatives for use in the treatment of cancers including Cushing disease” (Commissariat a l'Energie Atomique et aux Energies …, priority 2016, dated 2022).

Each structure is given as a SMILES string. Like-named read-outs stand apart in the source and are kept apart here.

Turning to `O=C1c2ccccc2C(=O)c2nc(CS(=O)(=O)c3ccccc3F)c(CS(=O)(=O)c3ccccc3F)nc21` [OVM24], in assay [1] (Table 1c), the inhibition at 0.01 µM was -29%, the inhibition at 0.05 µM turned out to be 2%, the inhibition at 0.1 µM is 9% and the inhibition at 0.5 µM is 10%. Further, in assay [1] (Table 1c), the inhibition at 1 µM came out at 12%, the inhibition at 5 µM turned out to be 20% and the inhibition at 10 µM was determined as 17%. Also, in assay [1] (Table 1b), the inhibition at 1 µM is 54%, the inhibition at 5 µM was determined as 68%, the inhibition at 25 µM worked out at 86% and the inhibition at 50 µM is 96%. In assay [1] (setting [3]), the IC50 is more than 10000 nM.

As to `CCCCS(=O)(=O)Cc1nc2c(nc1CS(=O)(=O)CCCC)C(=O)c1ccccc1C2=O` [PCR6236], the “cell death in spheroids (PI area over Hoechst area)” value with LNCaP cells spheroids was “significant induction of a tumorous cells death”. In assay [1], the IC50 was determined as 2100 nM and the “inhibition of USP2^CD activity (IC50 range, FIG. 1)” value was “in the micromolar range”. Further, in assay [2], the “Myc expression level, LNCaP” value was “decrease”; the “PARP cleavage, LNCaP” value is reported as “induced the cleavage of PARP”; the “phosphorylated p53 (P-Ser392, P-Ser15), LNCaP” value is given as “accumulated”. Also, in assay [2] (setting [4]), the “expression level of CyclinD1, LNCaP” value is on record as “strongly decreased” and the “expression level of FAS, LNCaP” value was “strongly decreased”. Also, in assay [2] (dose dependent, FIG. 7A), the “p53 expression, LNCaP” value was “restored high levels of p53 expression”.

Consider `CCCCS(=O)(=O)Cc1nc2c(o1)C(=O)c1ccccc1C2=O` [PCR9301], for which the “cell death in spheroids (PI area over Hoechst area)” value with LNCaP cells spheroids is on record as “to an ever higher extend”. Moreover, in assay [1] (Table 3a), the inhibition at 1 µM is 77%, the inhibition at 5 µM was found to be 99%, the inhibition at 25 µM is 100% and the inhibition at 50 µM came to 100%. Further, the “inhibition of USP2^CD activity (IC50 range, FIG. 1)” value in assay [1] is given as “in the micromolar range”. The 50% inhibitory concentration (IC50) in assay [1] (Ub-Rho substrate, Table 3b, read-out: IC50 against purified USP2^CD) came out at 400 nM. Besides, in assay [2], the “Myc expression level, LNCaP” value is “cMyc degradation”; the “PARP cleavage, LNCaP” value is “induced PARP cleavage”; the “phosphorylated p53 (P-Ser392, P-Ser15), LNCaP” value is reported as “phosphorylation of p53 on Ser15”.

Turning to `CCCS(=O)(=O)Cc1nc2c(nc1CS(=O)(=O)CCC)C(=O)c1ccccc1C2=O` [VIN6074], in assay [1] (Table 1c), the inhibition at 0.01 µM was found to be 1%, the inhibition at 0.05 µM is -13%, the inhibition at 0.1 µM is -23% and the inhibition at 0.5 µM was determined as 23%. In assay [1] (Table 1c), the inhibition at 1 µM is 17%, the inhibition at 5 µM is 70% and the inhibition at 10 µM is 77%. Further, in assay [1] (Table 1b), the inhibition at 1 µM stood at 38%, the inhibition at 5 µM stood at 81%, the inhibition at 25 µM stood at 98% and the inhibition at 50 µM is 101%. Also, the IC50 in assay [1] (setting [3]) is 3000 nM. Further, the IC50 in assay [1] (Ub-Rhodamine substrate at 0.1 μM, Table 2c, read-out: IC50 USP2 CD) was determined as 500 nM.
